Values of other authors in patent US11185565B2, “Compositions including milk thistle and methods of use” (GM Pharmaceuticals, Inc., priority 2019, dated 2021).

Key:
[1] = deficiency in PQQ, mammals
[2] = addition of chromium to carbohydrate-rich meals
[3] = additional chromium in drinking water; obese and insulin resistant mammals

For O=C(O)c1cc(C(=O)O)c2c(n1)C(=O)C(=O)c1cc(C(=O)O)[nH]c1-2.[Na].[Na] [PQQ, pyrroloquinoline quinone disodium], the “decrease in metabolic rate” value [1] is given as ~10%.
For [Cr] [chromium], the “reduction in blood sugar after the carbohydrate-rich meals” value [2] is given as > 20% and the “glucose disposal rates and insulin-stimulated signaling in skeletal muscles” value [3] is given as “significantly improved”.
